The data set can be described thus: Thermal stability, percentage of decomposition (GB/T 23800-2009, modified). The data set is classed as physicochemical. The note with it: after 500 hours at 320° C. As for the experimental part:
The thermal stability has been evaluated in the present invention by measuring, according to the GB/T 23800-2009 standard, the percentage of decomposition of the fluid. The test performed in the present example differs from the standard by the temperature and the duration of the test. According to the example, the percentage of decomposition of the fluid has been measured after 500 hours at 320° C.
The fluid of Ex. 3 according to the invention and defined above has been compared with other commercial fluids: an alkylbenzene fluid, a dibenzyltoluene isomer, a mineral base oil and a hydrotreated mineral base oil.

For dibenzyltoluene isomer, the “Thermal stability (% of decomposition)” value is 6.9%.

The values are drawn from patent US11680196B2, “Use of biodegradable hydrocarbon fluids as heat-transfer media” (TOTAL MARKETING SERVICES, priority 2016, dated 2023).
